Data as given in PubChem BioAssay AID248 (DTP/NCI, 2004).
Values joined by “and” are separate entries in the source; they are usually repeats but may differ in a detail not shown here. Equal values may be shown once. Toxic doses and inconclusive results are not listed. No stated cut-off is given here; in the data, active means T/C of 150% or more; inactive means T/C below 125%.

Tested on: L1210 leukemia ip in BDF1 mice, survival T/C
Experiment: NCI In Vivo Anticancer Drug Screen. Data for tumor model L1210 Leukemia (intraperitoneal) in B6D2F1 (BDF1) mice
Conditions: endpoint: mean survival time, higher = longer survival
Method in brief: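 In this screen, tumor-bearing mice given compound are compared to those given vehicle, and their survival values are reported as a treated-to-control quotient.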

[1] = dose: 100.0 mg/kg/injection, schedule: Q01DX009 (ip), vehicle: Klucel (hydroxypropylcellulose) (HPC)
[2] = dose: 100.0 mg/kg/injection, schedule: Q04DX003 (ip), vehicle: Klucel (hydroxypropylcellulose) (HPC)
[3] = dose: 200.0 mg/kg/injection, schedule: Q01DX009 (ip), vehicle: Klucel (hydroxypropylcellulose) (HPC)
[4] = dose: 200.0 mg/kg/injection, schedule: Q04DX003 (ip), vehicle: Klucel (hydroxypropylcellulose) (HPC)
[5] = dose: 400.0 mg/kg/injection, schedule: Q01DX009 (ip), vehicle: Klucel (hydroxypropylcellulose) (HPC)
[6] = dose: 400.0 mg/kg/injection, schedule: Q04DX003 (ip), vehicle: Klucel (hydroxypropylcellulose) (HPC)
[7] = dose: 100.0 mg/kg/injection, schedule: Q01DX009 (ip), vehicle: saline with Tween-80
[8] = dose: 200.0 mg/kg/injection, schedule: Q01DX009 (ip), vehicle: saline with Tween-80
[9] = dose: 400.0 mg/kg/injection, schedule: Q01DX009 (ip), vehicle: saline with Tween-80
[10] = dose: 100.0 mg/kg/injection, schedule: Q01DX001 (ip), vehicle: saline
[11] = dose: 200.0 mg/kg/injection, schedule: Q01DX001 (ip), vehicle: saline
[12] = dose: 400.0 mg/kg/injection, schedule: Q01DX001 (ip), vehicle: saline
[13] = dose: 100.0 mg/kg/injection, schedule: Q04DX002 (ip), vehicle: Klucel (hydroxypropylcellulose) (HPC)
[14] = dose: 200.0 mg/kg/injection, schedule: Q04DX002 (ip), vehicle: Klucel (hydroxypropylcellulose) (HPC)
[15] = dose: 400.0 mg/kg/injection, schedule: Q04DX002 (ip), vehicle: Klucel (hydroxypropylcellulose) (HPC)

Measured: T/C

BrCCCC1CCCCC1
inactive: [1] 104 % of control | [2] 100 % of control | [3] 97 % of control | [4] 104 % of control | [5] 92 % of control | [6] 105 % of control

O=C(O)Cc1cc([N+](=O)[O-])c(O)c([N+](=O)[O-])c1
inactive: dose: 100.0 mg/kg/injection, schedule: Q01DX009 (ip), vehicle: saline sonified 101 % of control | [2] 95 % of control | dose: 200.0 mg/kg/injection, schedule: Q01DX009 (ip), vehicle: saline sonified 102 % of control | [4] 88 % of control | dose: 400.0 mg/kg/injection, schedule: Q01DX009 (ip), vehicle: saline sonified 102 % of control | [6] 93 % of control

O=C1C2CCCCC1C(N1CCCC1)CC2 (stereo not drawn)
inactive: dose: 100.0 mg/kg/injection, schedule: Q01DX009 (sc), vehicle: olive oil, sesame oil, peanut oil 98 % of control | dose: 100.0 mg/kg/injection, schedule: Q04DX003 (sc), vehicle: olive oil, sesame oil, peanut oil 96 % of control | dose: 200.0 mg/kg/injection, schedule: Q01DX009 (sc), vehicle: olive oil, sesame oil, peanut oil 104 % of control | dose: 200.0 mg/kg/injection, schedule: Q04DX003 (sc), vehicle: olive oil, sesame oil, peanut oil 100 % of control | dose: 400.0 mg/kg/injection, schedule: Q04DX003 (sc), vehicle: olive oil, sesame oil, peanut oil 111 % of control

C/C=C1\CCC2C(=C1C)CC1C2CC=C2CC(OC(C)=O)CCC21C (stereo not drawn)
inactive: [1] 97 % of control | [2] 94 % of control | [3] 87 % of control | [4] 91 % of control | [5] 90 % of control | [6] 93 % of control

NC(CSP(=O)(O)O)=NCC12CC3CC(CC(C3)C1)C2
inactive: dose: 10.0 mg/kg/injection, schedule: Q04DX002 (ip), vehicle: Klucel (hydroxypropylcellulose) (HPC) 102 % of control | dose: 20.0 mg/kg/injection, schedule: Q04DX002 (ip), vehicle: Klucel (hydroxypropylcellulose) (HPC) 109 % of control

O=C(COc1ccc(Cl)c(Cl)c1)Nc1ccc[n+](CC(=O)Nc2ccc(S(=O)(=O)F)cc2)c1
inactive: [7] 87 % of control | [8] 87 % of control | [9] 89 % of control

C[S+](C)CCCN
inactive: [10] 105 % of control | dose: 100.0 mg/kg/injection, schedule: Q01DX009 (ip), vehicle: saline 94 % of control | dose: 100.0 mg/kg/injection, schedule: Q04DX003 (ip), vehicle: saline 103 % of control | [11] 110 % of control | dose: 200.0 mg/kg/injection, schedule: Q01DX009 (ip), vehicle: saline 109 % of control | dose: 200.0 mg/kg/injection, schedule: Q04DX003 (ip), vehicle: saline 106 % of control | [12] 105 % of control | dose: 400.0 mg/kg/injection, schedule: Q01DX009 (ip), vehicle: saline 106 % of control | dose: 400.0 mg/kg/injection, schedule: Q04DX003 (ip), vehicle: saline 98 % of control

N=C(CN1CCCCC1)N1CCCCC1
inactive: dose: 100.0 mg/kg/injection, schedule: Q04DX002 (ip), vehicle: saline 104 % of control

Cc1[nH]c2ccccc2c1C1Cc2ccccc2N1 (stereo not drawn)
inactive: dose: 100.0 mg/kg/injection, schedule: Q01DX001 (ip), vehicle: other 97 % of control and 103 % of control | dose: 100.0 mg/kg/injection, schedule: Q01DX009 (ip), vehicle: other 101 % of control | dose: 200.0 mg/kg/injection, schedule: Q01DX001 (ip), vehicle: other 100 % of control and 90 % of control | dose: 200.0 mg/kg/injection, schedule: Q01DX009 (ip), vehicle: other 101 % of control | dose: 400.0 mg/kg/injection, schedule: Q01DX001 (ip), vehicle: other 94 % of control | dose: 400.0 mg/kg/injection, schedule: Q01DX009 (ip), vehicle: other 107 % of control

CCOC(=O)CN(c1ccccc1C(=O)OC)S(=O)(=O)c1ccc(C)cc1
inactive: dose: 100.0 mg/kg/injection, schedule: Q01DX001 (ip), vehicle: carboxymethylcellulose (CMC) 112 % of control | dose: 200.0 mg/kg/injection, schedule: Q01DX001 (ip), vehicle: carboxymethylcellulose (CMC) 114 % of control | dose: 400.0 mg/kg/injection, schedule: Q01DX001 (ip), vehicle: carboxymethylcellulose (CMC) 107 % of control

CCc1cc2oc(C)c(C)c2c2nc(C)oc12
inactive: dose: 50.0 mg/kg/injection, schedule: Q04DX002 (ip), vehicle: Klucel (hydroxypropylcellulose) (HPC) 101 % of control | [13] 99 % of control and 104 % of control | [14] 101 % of control | [15] 96 % of control

CSC(c1ccc(Oc2ccccc2)cc1)=[N+]1CCCCC1
inactive: dose: 9.38 mg/kg/injection, schedule: Q01DX001 (ip), vehicle: steriod suspending solution 105 % of control | dose: 18.75 mg/kg/injection, schedule: Q01DX001 (ip), vehicle: steriod suspending solution 103 % of control | dose: 37.5 mg/kg/injection, schedule: Q01DX001 (ip), vehicle: steriod suspending solution 105 % of control

C=CC[n+]1ccccc1/C=C/c1ccc(OC)c(OC)c1
inactive: dose: 3.12 mg/kg/injection, schedule: Q01DX009 (ip), vehicle: Klucel (hydroxypropylcellulose) (HPC) 106 % of control | dose: 3.12 mg/kg/injection, schedule: Q04DX003 (ip), vehicle: Klucel (hydroxypropylcellulose) (HPC) 105 % of control | dose: 6.25 mg/kg/injection, schedule: Q01DX009 (ip), vehicle: Klucel (hydroxypropylcellulose) (HPC) 106 % of control | dose: 6.25 mg/kg/injection, schedule: Q04DX003 (ip), vehicle: Klucel (hydroxypropylcellulose) (HPC) 100 % of control | dose: 12.5 mg/kg/injection, schedule: Q01DX009 (ip), vehicle: Klucel (hydroxypropylcellulose) (HPC) 98 % of control | dose: 12.5 mg/kg/injection, schedule: Q04DX003 (ip), vehicle: Klucel (hydroxypropylcellulose) (HPC) 94 % of control and 100 % of control

O=C(CCCC(=O)NNC(=O)Nc1ccccc1Cl)NNC(=O)Nc1ccccc1Cl
inactive: dose: 50.0 mg/kg/injection, schedule: Q01DX001 (ip), vehicle: saline 102 % of control | [10] 96 % of control | [11] 100 % of control | [12] 93 % of control

O=C(Cc1cccc2ccccc12)N/N=C/c1cccc([N+](=O)[O-])c1
inactive: [1] 88 % of control | [13] 93 % of control | [3] 93 % of control | [14] 89 % of control | [15] 96 % of control

CCCC/C=C/C(C)O (stereo not drawn)
inactive: dose: 50.0 mg/kg/injection, schedule: Q01DX009 (ip), vehicle: saline with Tween-80 101 % of control | [7] 105 % of control | [8] 97 % of control

Nc1ccccc1SC1CC(=O)N(c2ccc(Cl)cc2)C1=O (stereo not drawn)
inactive: [7] 91 % of control | dose: 100.0 mg/kg/injection, schedule: Q04DX003 (ip), vehicle: saline with Tween-80 89 % of control | [8] 88 % of control | dose: 200.0 mg/kg/injection, schedule: Q04DX003 (ip), vehicle: saline with Tween-80 101 % of control | [9] 98 % of control | dose: 400.0 mg/kg/injection, schedule: Q04DX003 (ip), vehicle: saline with Tween-80 97 % of control

C[N+](C)(C)CC(O)CCl (stereo not drawn)
inactive: [10] 95 % of control | [11] 102 % of control

Nc1ccc2ncccc2c1 (tested in a mixture with another compound)
inactive: dose: 100.0 mg/kg/injection, schedule: Q04DX003 (ip), vehicle: gum acacia 100 % of control | dose: 200.0 mg/kg/injection, schedule: Q04DX003 (ip), vehicle: gum acacia 91 % of control | dose: 400.0 mg/kg/injection, schedule: Q04DX003 (ip), vehicle: gum acacia 100 % of control
